According to PubChem BioAssay AID248 (DTP/NCI, 2004):
Several values for one entry are separate records, joined by “and”; a condition that tells them apart may be missing. Equal entries are not always repeated. Inconclusive results and toxic doses are left out. Rule as the data show it: active = T/C of 150% or more; inactive = T/C below 125%.

Test system: L1210 leukemia ip in BDF1 mice, survival T/C
Experiment: NCI In Vivo Anticancer Drug Screen. Data for tumor model L1210 Leukemia (intraperitoneal) in B6D2F1 (BDF1) mice
Conditions: endpoint: mean survival time, higher = longer survival
How it was run: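 Transplanted-tumor mice were given test agent; controls received vehicle only. Survival readings from the two groups were divided (treated over control).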

[1] = dose: 50.0 mg/kg/injection, schedule: Q01DX001 (ip), vehicle: carboxymethylcellulose (CMC)
[2] = dose: 100.0 mg/kg/injection, schedule: Q01DX Z (ip), vehicle: methylcellulose (MC)
[3] = dose: 200.0 mg/kg/injection, schedule: Q01DX001 (ip), vehicle: carboxymethylcellulose (CMC)
[4] = dose: 200.0 mg/kg/injection, schedule: Q01DX001 (ip), vehicle: saline
[5] = dose: 400.0 mg/kg/injection, schedule: Q01DX001 (ip), vehicle: carboxymethylcellulose (CMC)
[6] = dose: 400.0 mg/kg/injection, schedule: Q01DX001 (ip), vehicle: saline
[7] = dose: 75.0 mg/kg/injection, schedule: Q01DX001 (ip), vehicle: other
[8] = dose: 100.0 mg/kg/injection, schedule: Q04DX003 (ip), vehicle: saline with Tween-80
[9] = dose: 200.0 mg/kg/injection, schedule: Q04DX003 (ip), vehicle: saline with Tween-80
[10] = dose: 100.0 mg/kg/injection, schedule: Q01DX001 (ip), vehicle: saline
[11] = dose: 100.0 mg/kg/injection, schedule: Q01DX009 (ip), vehicle: saline with Tween-80

Measured: T/C

CSc1ncc(Br)c(Sc2nc(N)nc3nc[nH]c23)n1
active: dose: 10.0 mg/kg/injection, schedule: Q01DX001 (ip), vehicle: saline with Tween-80 156 % of control | dose: 12.0 mg/kg/injection, schedule: Q01DX001 (ip), vehicle: saline with Tween-80 190 % of control | dose: 12.0 mg/kg/injection, schedule: Q01DX Z (ip), vehicle: carboxymethylcellulose (CMC) 158 % of control | dose: 14.0 mg/kg/injection, schedule: Q01DX001 (ip), vehicle: saline with Tween-80 200 % of control | dose: 19.0 mg/kg/injection, schedule: Q01DX001 (ip), vehicle: saline with Tween-80 162 % of control | dose: 29.0 mg/kg/injection, schedule: Q01DX001 (ip), vehicle: saline 244 % of control | dose: 30.0 mg/kg/injection, schedule: Q01DX001 (ip), vehicle: saline with Tween-80 162 % of control | dose: 44.0 mg/kg/injection, schedule: Q01DX001 (ip), vehicle: saline with Tween-80 164 % of control | dose: 45.0 mg/kg/injection, schedule: Q01DX001 (ip), vehicle: saline 236 % of control | [1] 158 % of control
inactive: dose: 0.25 mg/kg/injection, schedule: Q01DX Z (ip), vehicle: other 107 % of control | dose: 0.5 mg/kg/injection, schedule: Q01DX Z (ip), vehicle: other 103 % of control | dose: 1.0 mg/kg/injection, schedule: Q01DX Z (ip), vehicle: methylcellulose (MC) 98 % of control | dose: 1.0 mg/kg/injection, schedule: Q01DX Z (ip), vehicle: other 103 % of control | dose: 3.0 mg/kg/injection, schedule: Q01DX Z (ip), vehicle: carboxymethylcellulose (CMC) 121 % of control | dose: 3.0 mg/kg/injection, schedule: Q01DX Z (ip), vehicle: methylcellulose (MC) 97 % of control | dose: 6.0 mg/kg/injection, schedule: Q01DX Z (ip), vehicle: methylcellulose (MC) 107 % of control | dose: 32.0 mg/kg/injection, schedule: Q01DX Z (ip), vehicle: other 96 % of control | dose: 33.5 mg/kg/injection, schedule: Q01DX Z (ip), vehicle: carboxymethylcellulose (CMC) 107 % of control | dose: 48.0 mg/kg/injection, schedule: Q01DX Z (ip), vehicle: carboxymethylcellulose (CMC) 103 % of control | dose: 66.0 mg/kg/injection, schedule: Q01DX001 (ip), vehicle: saline 101 % of control | dose: 100.0 mg/kg/injection, schedule: Q01DX001 (ip), vehicle: saline with Tween-80 104 % of control | [2] 91 % of control | dose: 150.0 mg/kg/injection, schedule: Q01DX001 (ip), vehicle: saline with Tween-80 120 % of control | dose: 150.0 mg/kg/injection, schedule: Q01DX001 (ip), vehicle: saline 105 % of control | [3] 103 % of control | [4] 122 % of control | [5] 94 % of control | [6] 99 % of control

OCC1CCCC1
inactive: [1] 92 % of control | dose: 100.0 mg/kg/injection, schedule: Q01DX001 (ip), vehicle: carboxymethylcellulose (CMC) 94 % of control | [3] 92 % of control | [5] 94 % of control

Nc1sc(C(=O)O)cc1[N+](=O)[O-]
inactive: [3] 92 % of control | [5] 92 % of control

OCCN1CCN(CCCN2c3ccccc3Sc3ccc(Cl)cc32)CC1
inactive: dose: 6.25 mg/kg/injection, schedule: Q01DX001 (ip), vehicle: Klucel (hydroxypropylcellulose) (HPC) 97 % of control | dose: 12.5 mg/kg/injection, schedule: Q01DX001 (ip), vehicle: Klucel (hydroxypropylcellulose) (HPC) 105 % of control | dose: 25.0 mg/kg/injection, schedule: Q01DX001 (ip), vehicle: Klucel (hydroxypropylcellulose) (HPC) 111 % of control | dose: 200.0 mg/kg/injection, schedule: Q04DX002 (ip), vehicle: Klucel (hydroxypropylcellulose) (HPC) 108 % of control

O=Nc1c(O)ccc2ncccc12
inactive: [7] 104 % of control | dose: 150.0 mg/kg/injection, schedule: Q01DX001 (ip), vehicle: other 104 % of control

Cc1ccc(Cl)cc1S
inactive: dose: 16.0 mg/kg/injection, schedule: Q01DX015 (ip), vehicle: saline 96 % of control | dose: 32.0 mg/kg/injection, schedule: Q01DX015 (ip), vehicle: saline 94 % of control | dose: 64.0 mg/kg/injection, schedule: Q01DX015 (ip), vehicle: saline 100 % of control | dose: 100.0 mg/kg/injection, schedule: Q01DX009 (ip), vehicle: water 100 % of control | dose: 100.0 mg/kg/injection, schedule: Q04DX003 (ip), vehicle: water 94 % of control | dose: 128.0 mg/kg/injection, schedule: Q01DX015 (ip), vehicle: saline 88 % of control

COc1ccc([P+](Cc2ccccc2)(c2ccccc2)c2ccc3ccccc3c2)cc1 (stereo not given)
inactive: dose: 75.0 mg/kg/injection, schedule: Q01DX001 (ip), vehicle: carboxymethylcellulose (CMC) 91 % of control | dose: 150.0 mg/kg/injection, schedule: Q01DX001 (ip), vehicle: carboxymethylcellulose (CMC) 96 % of control

COc1c(C(C)(C)C)cc([N+](=O)[O-])c(C)c1[N+](=O)[O-]
inactive: dose: 100.0 mg/kg/injection, schedule: Q01DX009 (ip), vehicle: Klucel (hydroxypropylcellulose) (HPC) 98 % of control | dose: 100.0 mg/kg/injection, schedule: Q04DX003 (ip), vehicle: Klucel (hydroxypropylcellulose) (HPC) 103 % of control | dose: 200.0 mg/kg/injection, schedule: Q01DX009 (ip), vehicle: Klucel (hydroxypropylcellulose) (HPC) 103 % of control | dose: 200.0 mg/kg/injection, schedule: Q04DX003 (ip), vehicle: Klucel (hydroxypropylcellulose) (HPC) 102 % of control | dose: 400.0 mg/kg/injection, schedule: Q01DX009 (ip), vehicle: Klucel (hydroxypropylcellulose) (HPC) 96 % of control | dose: 400.0 mg/kg/injection, schedule: Q04DX003 (ip), vehicle: Klucel (hydroxypropylcellulose) (HPC) 94 % of control

CCCC(CNC1CCCCC1)OC(=O)c1ccc(N)cc1 (stereo not given)
inactive: [7] 96 % of control

CC(C)=CCn1c(=O)c2c(ncn2C)n(C)c1=O
inactive: [8] 98 % of control | [9] 98 % of control

CC1C(Br)C(=O)NC(=O)N1Cc1ccccc1 (stereo not given)
inactive: [2] 92 % of control | dose: 200.0 mg/kg/injection, schedule: Q01DX Z (ip), vehicle: methylcellulose (MC) 94 % of control

CCCOP(=O)(OCCC)C(OC(=O)C(C)C)=C(C)C
inactive: [8] 97 % of control | [9] 94 % of control

CC/C(C)=C\CC/C(C)=C/COc1cccc([N+](=O)[O-])c1
inactive: dose: 50.0 mg/kg/injection, schedule: Q01DX009 (ip), vehicle: carboxymethylcellulose (CMC) 97 % of control | dose: 100.0 mg/kg/injection, schedule: Q01DX009 (ip), vehicle: carboxymethylcellulose (CMC) 92 % of control | dose: 200.0 mg/kg/injection, schedule: Q01DX009 (ip), vehicle: carboxymethylcellulose (CMC) 101 % of control

OCC(O)C(O)C(O)C(O)C(c1ccc(Cl)cc1)c1ccc(Cl)cc1 (stereo not given)
inactive: dose: 50.0 mg/kg/injection, schedule: Q01DX001 (ip), vehicle: saline 101 % of control and 98 % of control | [10] 101 % of control and 93 % of control and 88 % of control | [4] 95 % of control and 91 % of control | [6] 95 % of control and 96 % of control

CCCCCCCCCCCCCC[S+](C)C
inactive: dose: 12.5 mg/kg/injection, schedule: Q01DX009 (ip), vehicle: saline 108 % of control | dose: 12.5 mg/kg/injection, schedule: Q04DX003 (ip), vehicle: saline 101 % of control | dose: 25.0 mg/kg/injection, schedule: Q01DX009 (ip), vehicle: saline 123 % of control | dose: 25.0 mg/kg/injection, schedule: Q04DX003 (ip), vehicle: saline 90 % of control | dose: 50.0 mg/kg/injection, schedule: Q04DX003 (ip), vehicle: saline 96 % of control

O=[N+]([O-])c1ccc(N/N=C/c2cc(Cl)cc(Cl)c2)c([N+](=O)[O-])c1
inactive: [10] 100 % of control | [4] 105 % of control | [6] 96 % of control

O=C(Nc1ccccc1)c1ccc2c(c1)C(=O)OC2=O
inactive: [11] 102 % of control | dose: 200.0 mg/kg/injection, schedule: Q01DX009 (ip), vehicle: saline with Tween-80 94 % of control | dose: 400.0 mg/kg/injection, schedule: Q01DX009 (ip), vehicle: saline with Tween-80 89 % of control

Nc1ccc(CCCCc2ccc(Cl)cc2Cl)cc1
inactive: dose: 50.0 mg/kg/injection, schedule: Q01DX001 (ip), vehicle: Klucel (hydroxypropylcellulose) (HPC) 100 % of control | dose: 50.0 mg/kg/injection, schedule: Q01DX009 (ip), vehicle: saline with Tween-80 96 % of control | dose: 100.0 mg/kg/injection, schedule: Q01DX001 (ip), vehicle: Klucel (hydroxypropylcellulose) (HPC) 94 % of control | [11] 102 % of control | dose: 200.0 mg/kg/injection, schedule: Q01DX001 (ip), vehicle: Klucel (hydroxypropylcellulose) (HPC) 109 % of control
